In paper PMC4278837, “A Cyclic Peptidic Serine Protease Inhibitor: Increasing Affinity by Increasing Peptide Flexibility” (PLoS ONE, 2014) one finds Ki data, which are given here for six compounds.

Like-named read-outs stand apart in the source and are kept apart here. Bridge positions count the residues as written; N and C are the ends. Peptide text beside a SMILES is read from it. Where only a bound is given, the exact number is not on record here.

For the assay, the target named is T1, huPA-H99Y (Homo sapiens, UniProt P00749, H272Y).
T1 construct: To ensure that the uPAs purified from the conditioned media were completely in the two-chain form, they were treated with plasmin; hexa-His (C); made in house; host or cells: HEK293 6E suspension cells
The assay can be described thus: Ki for inhibition of huPA-H99Y, chromogenic substrate S-2444. It is filed as biochemical. An excerpt: Determination of Ki values
The initial reaction velocities were monitored at an absorbance of 405 nm. The inhibition constants (K i) were subsequently determined from the non-linear regression analyses of plots for V i/V o versus [I]0, using Equation 2, derived under assumption of competitive inhibition:
[drawing 2] (2) where V i and V 0 are the reaction velocities in the presence and absence of inhibitor, respectively; [S]0 and [I]0 are the substrate and inhibitor concentrations, respectively; K M is K M for substrate hydrolysis by each protease. In Equation 2, it is assumed that [S]free ≈ [S]0 and [I]free ≈ [I]0.

[1] abbreviates: 37°C, means ± S.D., read-out: K i for inhibition of huPA-H99Y.

On to `CC(=O)N[C@H]1CSSC[C@@H](C(N)=O)NC(=O)[C@H](CC(=O)O)NC(=O)[C@H](CC(C)C)NC(=O)[C@H](C)NC(=O)[C@H](CCCNC(=N)N)NC(=O)[C@H](CO)NC(=O)[C@H](Cc2ccc(O)cc2)NC(=O)[C@H](C)NC(=O)[C@@H]2CCCN2C1=O` [Mupain-1 Y7A, CPAYSRALDC] (Ac-CPAYSRALDC-NH2; disulfide 1-10), for which the Ki under setting [1] was determined as 44 ± 3 µM.

For CPAYSRYLDC [Mupain-1 L8A], the Ki under setting [1] stood at 19.1 ± 1.1 µM.

Regarding `CC(=O)N[C@H]1CSSC[C@@H](C(N)=O)NC(=O)[C@H](CC(=O)O)NC(=O)[C@H](CC(C)C)NC(=O)[C@H](Cc2ccc(O)cc2)NC(=O)[C@H](CCCNC(=N)N)NC(=O)[C@H](C)NC(=O)[C@H](Cc2ccc(O)cc2)NC(=O)[C@H](C)NC(=O)[C@@H]2CCCN2C1=O` [Mupain-1 S5A, CPAYARYLDC] (Ac-CPAYARYLDC-NH2; disulfide 1-10), the Ki under setting [1] was over 1000 µM.

Compound `CC(=O)N[C@H]1CSSC[C@@H](C(N)=O)NC(=O)[C@H](CC(=O)O)NC(=O)[C@H](CC(C)C)NC(=O)[C@H](Cc2ccc(O)cc2)NC(=O)[C@H](C)NC(=O)[C@H](CO)NC(=O)[C@H](Cc2ccc(O)cc2)NC(=O)[C@H](C)NC(=O)[C@@H]2CCCN2C1=O` [Mupain-1 R6A, CPAYSAYLDC] (Ac-CPAYSAYLDC-NH2; disulfide 1-10) showed a Ki of over 1000 µM.

As for `CC(=O)N[C@H]1CSSC[C@@H](C(N)=O)NC(=O)[C@H](CC(=O)O)NC(=O)[C@H](CC(C)C)NC(=O)[C@H](Cc2ccc(O)cc2)NC(=O)[C@H](CCCNC(=N)N)NC(=O)[C@H](CO)NC(=O)[C@H](C)NC(=O)[C@H](C)NC(=O)[C@@H]2CCCN2C1=O` [Mupain-1 Y4A, CPAASRYLDC] (Ac-CPAASRYLDC-NH2; disulfide 1-10), the Ki under setting [1] was over 1000 µM.

On to `CC(=O)N[C@H]1CSSC[C@@H](C(N)=O)NC(=O)[C@H](CC(=O)O)NC(=O)[C@H](CC(C)C)NC(=O)[C@H](Cc2ccc(O)cc2)NC(=O)[C@H](CCCNC(=N)N)NC(=O)[C@H](CO)NC(=O)[C@H](Cc2ccc(O)cc2)NC(=O)[C@H](C)NC(=O)[C@H](C)NC1=O` [Mupain-1 P2A, CAAYSRYLDC] (Ac-CAAYSRYLDC-NH2; disulfide 1-10), for which, under setting [1], the Ki was over 1000 µM.
